Laboratory results from BindingDB's records for doi:10.1074/jbc.M109.017632 (University of California San Francisco, 2009).

Legend:
Test in all cases: Binding Assay
Cytochrome P450 130 [1] = biological target: T1, Cytochrome P450 130 (Mycobacterium tuberculosis (strain CDC 1551 / Oshkosh), UniProt P9WPN4)
T1 sequence (P9WPN4 whole entry): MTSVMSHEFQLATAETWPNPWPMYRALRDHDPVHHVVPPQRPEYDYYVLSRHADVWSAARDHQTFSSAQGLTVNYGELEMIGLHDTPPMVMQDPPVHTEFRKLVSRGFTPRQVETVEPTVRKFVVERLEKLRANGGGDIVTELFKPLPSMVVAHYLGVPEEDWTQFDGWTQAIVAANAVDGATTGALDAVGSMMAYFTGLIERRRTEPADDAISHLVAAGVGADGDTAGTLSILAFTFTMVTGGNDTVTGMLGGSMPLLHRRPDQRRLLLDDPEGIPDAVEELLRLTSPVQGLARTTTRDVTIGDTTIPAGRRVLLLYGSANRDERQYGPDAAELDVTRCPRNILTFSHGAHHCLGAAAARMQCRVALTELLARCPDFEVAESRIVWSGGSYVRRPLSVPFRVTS
Excerpt: (§1) Binding assay using CYP130, CYP130 (G234) or CYP142.

Cytochrome P450 130 [2] = biological target: T2, Cytochrome P450 130 (Mycobacterium tuberculosis (strain ATCC 25618 / H37Rv), UniProt P9WPN5)
T2 sequence (P9WPN5 whole entry): T1 sequence (P9WPN4 whole entry)
Excerpt: as §1

[3] = biological target: T3, Steroid C26-monooxygenase (Mycobacterium tuberculosis (strain CDC 1551 / Oshkosh), UniProt P9WPL4)
T3 sequence (P9WPL4 whole entry): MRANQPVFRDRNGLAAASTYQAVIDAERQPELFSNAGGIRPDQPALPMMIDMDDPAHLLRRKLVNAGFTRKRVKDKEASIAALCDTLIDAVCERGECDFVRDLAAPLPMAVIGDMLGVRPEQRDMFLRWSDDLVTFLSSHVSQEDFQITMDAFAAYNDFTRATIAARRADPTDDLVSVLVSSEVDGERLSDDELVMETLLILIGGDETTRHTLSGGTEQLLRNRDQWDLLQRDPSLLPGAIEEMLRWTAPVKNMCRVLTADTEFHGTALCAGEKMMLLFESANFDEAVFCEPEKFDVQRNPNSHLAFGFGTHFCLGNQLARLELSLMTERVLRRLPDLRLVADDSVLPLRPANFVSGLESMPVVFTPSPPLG
Excerpt: as §1

Row | Structure (SMILES) | Kd (Cytochrome P450 130 [1]) [µM] | Kd (Cytochrome P450 130 [2]) [µM] | Kd [3] [µM]
1 | Nc1ccc(Sc2ccc(N3C(=O)c4ccc(N)cc4C3=O)cc2)cc1 [Arylamine compound 2] | 1.08 | 4.9 | 0.17
2 | Nc1ccccc1 [Aniline] | 55.2 | 2500 | 59.2
3 | NCc1ccccc1 | 9990 | 10000 | 0.1
4 | Clc1ccccc1C(c1ccccc1)(c1ccccc1)n1ccnc1 | 13.3 | 6.1 | –
5 | Clc1ccc(COC(Cn2ccnc2)c2ccc(Cl)cc2Cl)cc1 (stereo unspecified) [ECONAZOLE] | 1.93 | 4.5 | 0.33
6 | Cc1cccc(-n2cnc3cc(N)ccc32)c1 [Arylamine compound 4] | 4.8 | 32.6 | –
